Results on 88 compounds are retold here after a melting point compilation (Tetko et al.; mined from patent text by program, amines drawn as free bases though some values may be those of a salt).

The structures appear in SMILES notation.

As for `CCCCCCCCCCCCCC(=O)O[C@H](CCCCCCCCCCC)CC(=O)N[C@@H](CO)C(=O)OCc1ccccc1`, the melting point (usually the temperature, or range, at which the solid turns liquid) was in the range of 56 to 61 °C. `N#Cc1nn(-c2c(Cl)cc(C(F)(F)F)cc2Cl)cc1C1CC1(Br)Br` (stereo not drawn) showed a melting point of 121 to 123 °C. Compound `COC(=O)CCCCCCCCCCCCCCCCCCCCCN1C(=O)c2ccccc2C1=O` registered a melting point of 88.5 to 90.5 °C. `Cc1cc(C)nc(C(=O)n2cc(CC(=O)O)c3ccc(Cl)cc32)c1` displayed a melting point of 219 to 220 °C. Compound `COC(=O)C(C)c1ccc(C(=O)c2cccs2)cc1` (stereo not drawn) yielded a melting point of 62 °C. On to `O=C1c2cccc3c([N+](=O)[O-])c(O)cc(c23)C(=O)N1O`, for which the melting point is 267 to 270 °C.

`Fc1ccc(-c2cn([C@H]3CN4CCC3CC4)nn2)cn1`: the melting point stood at 147 °C. As to `CCCCCCCC(=O)Nc1ccn(C2OC(CO)C(O)C2O)c(=O)n1` (stereo not drawn), the melting point lay within 151 to 153 °C. For the compound `O=C(c1ccc(F)cc1)c1ccc(SCc2ccccc2)cc1`, the melting point came out at 96 °C. `O=C(O)CCCCCCCCCCCCCCCCCCCCCI` yielded a melting point of 71 to 72 °C. The compound `Cc1cc2[nH]c(=O)c(C(=O)O)c(-c3ccccc3C)c2cc1C` yielded a melting point of 236 to 237 °C. Compound `Clc1ccc2c(NCc3ccccc3)c3cccn3nc2c1` displayed a melting point of 184 to 186 °C. In the case of `CCCOc1ccc(S(C)(=O)=O)cc1-c1nc2c(CC)nn(C[C@@H]3CCCN3C)c2c(=O)[nH]1`, the melting point was in the range of 211 to 215 °C. Take `Clc1cccc(/C=C/[C@H]2CCCN2c2ncnc3[nH]cnc23)c1`: the melting point lay within 194 to 196 °C.

For the compound `O=C(O)c1ccc(OCc2ccc3ccccc3n2)cc1`, the melting point was greater than 300 °C.

`CC(C)CCOc1c(-c2ccc(S(C)(=O)=O)cc2)cnn(-c2ccc(F)c(F)c2)c1=O` gave a melting point of 121 to 123 °C. In turn, `Cc1c2c(nc3ccccc13)C(=Cc1ccc(Cl)c(Cl)c1)CC2` displayed a melting point of 187 to 188 °C.

Consider `CCC(CC)c1ccc(Cl)c2nc(Oc3c(C)cc(Cl)cc3Cl)n(C)c12`, for which the melting point fell in the range of 155 to 157 °C. For `CCC(C)(C)NCCC(C(=O)O)C(=O)c1ccc(Cl)cc1Cl` (stereo not drawn) the value was 124 to 126 °C; for `C[C@H](NC1=NS(=O)(=O)c2sc(Cl)cc2N1)c1ccccc1`, 195 to 204 °C. Then `CCCCNC(=O)Oc1cccc(NC(=O)NC2CC2)c1`, with 154 °C.

In turn, `COC(=O)C(c1ccccc1)C1CCN(c2ccc(NC(=O)c3ccccc3-c3ccc(C(F)(F)F)cc3)cc2)CC1` (stereo not drawn) gave a melting point of 151 °C. For `CCCCNS(=O)(=O)c1ccc(OC)c(NC(C)=O)c1` the value was 115 to 117 °C; for `CCN(CC)C(=O)Cc1nn(-c2ccccc2)c(=O)c2c1c1ccc(Cl)cc1n2C`, 167 to 168 °C; for `COc1ccc(Cn2c(=O)[nH]c(=O)c3c2nc(C(C)(C)C)n3Cc2ccccc2)cc1`, 170 to 172 °C.

For the compound `CCc1cnc(N2CCN(C(=O)c3cccc(Nc4ncnc5ccccc45)c3)CC2)nc1`, the melting point is 146 to 147 °C. Take `N#CC(=Cc1cc(O)c(O)c([N+](=O)[O-])c1)C(N)=O`: the melting point is 296 to 298 °C. `COc1ccc(Cl)c(C)c1OC` displayed a melting point of 69 to 70 °C.

In turn, `N#Cc1ccc2c(c1)C(=O)OC2` showed a melting point of 195 to 196 °C. With `CC(Cn1ncnn1)n1nnc2cc3c(=O)n(Cc4cccnc4)nnc3cc2c1=O` (stereo not drawn), the melting point came out at 200 °C.

Compound `O=C1CC[C@H](COC(c2ccccc2)(c2ccccc2)c2ccccc2)N1CCCc1ccccc1` had a melting point of 109 °C. `O=C(O)c1ccc(-c2cc3cccnc3c(-c3cccc4nonc34)n2)cc1` came in with a melting point greater than 300 °C.

`Cc1cnn(-c2ccc(C(=O)N3Cc4cccn4Cc4ccccc43)c(Cl)n2)c1` gave a melting point of 155 to 156 °C.

The compound `Cc1cc(COc2ccc(C(N)=O)cc2)c2c(N)c(C(N)=O)sc2n1` gave a melting point greater than 250 °C.

Consider `CCOCCCNc1nc(C)[nH]c2cc(-c3ccccc3)nc1-2`, for which the melting point fell in the range of 208 to 210 °C. `COc1ccc(-c2cc(N(C)c3c(C)cc(C)cc3C)nc(C)n2)cc1OC` came in with a melting point of 124 to 125 °C.

As for `CCc1ccc(-c2nc(Cl)c3ccccc3n2)cc1`, the melting point was in the range of 75.5 to 76.5 °C. `CCC(C)C(C(=O)O)N1C(=O)C2C3C=CC(C3)C2C1=O` (stereo not drawn) registered a melting point of 109 °C. In the case of `CCN(CC)c1ccc(C2(N(c3ccccc3)c3ccc(NC(C)=O)cc3)OC(=O)c3ccccc32)c(C)c1` (stereo not drawn), the melting point was 169 to 171 °C. As to `Cn1cncc1C(O)c1ccc2[nH]c(=O)cc(-c3cccc(Cl)c3)c2c1` (stereo not drawn), the melting point amounted to 186 °C. `CCC1CCC(C)N(C(=O)CN(C(=O)CNC(=O)Nc2cccc(C)c2)c2ccccc2)C1` (stereo not drawn): the melting point stood at 158 °C.

As for `COc1ccccc1CCCNc1ccc(C(=O)O)cc1`, the melting point was in the range of 155 to 157 °C. In turn, `NCc1nc2ccccc2[nH]1` showed a melting point of 81 to 83 °C. As for `C=CCOc1ccc(-c2cc3ccccc3[nH]2)cc1`, the melting point is 214 °C. Consider `O=C(c1ccc(Cl)cc1)c1cccc(O)c1`, for which the melting point is 154 °C. Compound `C=C(CC(C)C)C(=O)NCCCCCC(N)=O` came in with a melting point of 76 to 82 °C. On to `Cc1ccc(Oc2ccccc2-n2cnnn2)c(O)c1`, for which the melting point lay within 157 to 160 °C.

Regarding `O=c1cc(CO)oc2cc(OCCCCl)ccc12`, the melting point lay in the range of 110 to 112 °C. Take `Cc1ccc(OC2COc3ccc(O)cc3C2O)cn1` (stereo not drawn): the melting point was 240 to 241 °C. For `COc1cccc2c1OC(CO)C2=O` (stereo not drawn), the melting point lay in the range of 103 to 104 °C.

Regarding `c1cc(CC[C@H]2CNCCN2)ccn1`, the melting point lay in the range of 113 to 116 °C. Then `CCCC(=O)Nc1ccc(CCn2c(=O)n(CCC)c(=O)c3[nH]c(C4CCCC4)nc32)cc1`, with greater than 270 °C; and `CC(C)(C)c1ccc(OCC(O)CN2CCC3(CC2)CSC2=C(O3)c3cc(Cl)ccc3C(=O)C2=O)cc1` (stereo not drawn), with 94 to 97 °C. Take `CCN1CCCC1CNC(=O)c1cc(NS(N)(=O)=O)c(C)cc1OC` (stereo not drawn): the melting point lay in the range of 140 to 141 °C. For `O=C1N(Cc2cnccc2C(F)(F)F)c2ccccc2C12COc1cc3c(cc12)OCCO3` (stereo not drawn) the value was 131 to 132 °C; for `CCOC(=O)C1=C(COC)NC(COC)=C(C(=O)OCC)C1c1ccc(SC)cc1`, 136 to 138 °C. `CCn1c2ccccc2c2cc(Nc3nccc(-c4ccc(N5CCNCC5)nc4)n3)ccc21` yielded a melting point of 131 to 137 °C.

`COc1cc(O)ccc1-c1cnc2cnc(-c3ccc(O)cc3)nc2c1` had a melting point of 207 to 208 °C.

`Cc1ccccc1C=C1CCn2c1nc1ccc(C#N)cc1c2=O` yielded a melting point of 234 to 236 °C.

With `COC(=O)c1sc(C)c(C#N)c1N(C(=O)OC(C)(C)C)C(=O)OC(C)(C)C`, the melting point lay within 97 to 102 °C. Then `Cn1ncc2c(=O)n3c(nc21)SC(C(=O)O)C3` (stereo not drawn), with 274 to 276 °C; and `CCOC(=O)C(C#N)=Cc1cc(Oc2c(Cl)cc(C(F)(F)F)cc2Cl)ccc1[N+](=O)[O-]`, with 99 °C; and `C=Cc1c(N)nc(-c2ccc(Cl)c(OC)c2F)nc1C(=O)OCc1ccccc1`, with 119 to 121 °C.

With `CC(C(=O)O)c1cccc(Sc2ccccc2Cl)c1O` (stereo not drawn), the melting point was 143 to 145 °C.

As to `O=C(Nc1ccnn1-c1c(Cl)cc(C(F)(F)F)c(Cl)c1Cl)C(F)(F)F`, the melting point was 140 to 145 °C. As for `O=C1OC(CO)CN1c1ccc(O)cc1` (stereo not drawn), the melting point came out at 189 °C. Then `CCOCc1nc2c(N)nc(C)cc2n1CCCCNC(=O)C(C)C`, with 170 to 172 °C; and `CCOP(=O)(OCC)c1c(-c2c(OC)ccc3ccccc23)c(C)c2c(c1-c1ccccc1)COC2`, with 54.1 to 56 °C.

`Cc1nnc(-c2ccc3occ(-c4ccc(C(=O)O)cc4)c3c2)o1` yielded a melting point greater than 300 °C. In the case of `O=C(O)c1cc2c(c(C(=O)O)c1)NCCCC2`, the melting point fell in the range of 287 to 288 °C. For `CC(C)(C)OC(=O)N1CCCN(c2cc[nH]c(=S)c2C#N)CC1`, the melting point is 203 to 205 °C. For `CN(C)c1ccc(C=C2SC(N3CCCC3)=NC2=O)cc1-c1cc(F)c(O)c(C23CC4CC(CC(C4)C2)C3)c1` the value was 294 to 298 °C. Regarding `COC(=O)C1=C(N)OC(C)=C(C(C)=O)C1c1cccc([N+](=O)[O-])c1` (stereo not drawn), the melting point lay within 160 to 163 °C.

In turn, `FC(F)(F)COc1ccc(Cc2ccncc2)cc1` displayed a melting point of 51 to 53 °C. `Nc1ccn(C2OC(CO)C(O)C2O[N+](=O)[O-])c(=O)n1` (stereo not drawn): the melting point lay in the range of 151 to 153 °C. The compound `O=C(CCCCCCNC(=O)c1cn2c3c(cccc13)CCC2)NO` yielded a melting point of 205 to 206 °C. In the case of `CC(=O)NC(Cc1ccccc1)C(=O)Nc1c(C)cccc1C` (stereo not drawn), the melting point was in the range of 217 to 218 °C.

Regarding `CCC(O)(C(=O)NC(C)c1ccccc1)c1cc2n(c(=O)c1CO)CCC21OCCO1` (stereo not drawn), the melting point was in the range of 115 to 116 °C. For `O=C1c2ccc(Nc3ccc(F)cc3F)cc2CCc2cc(OCCO)ccc21` the value was 138 °C; for `Cc1ccc(S(=O)(=O)n2c(I)cc3c(Br)ccnc32)cc1`, 140 to 143 °C; for `NS(=O)(=O)c1ccc(CCN2C(=O)c3ccccc3C2(O)c2ccccc2)cc1` (stereo not drawn), 225 °C. `O=C(O)c1ccc(OCCNC(=O)C2Cc3ccccc3N2S(=O)(=O)c2ccc(-c3ccc(F)cc3Cl)cc2)cc1` (stereo not drawn) gave a melting point of 90 °C. Turning to `Cc1nnsc1C(=O)Nc1ccc(-n2nc(-c3cccnc3)cc2C#N)cc1`, the melting point is 215 to 218 °C.

`CC(C)OC1CCCC(C2NC(=O)C2C(C)O[Si](C)(C)C(C)(C)C)C1O` (stereo not drawn) came in with a melting point of 121 to 123 °C. In the case of `CC(C)(C)NC(=O)[C@@H]1C[C@@H](O)CN1C(=O)OC(C)(C)C`, the melting point fell in the range of 192 to 193 °C. For `CCc1cccc2c(/C(C)=C/C(=O)O)cc(OC)c(OCOC)c12` the value was 114 to 115 °C. Take `Cc1nc(-c2ccccc2)nc(-c2cccc([N+](=O)[O-])c2)c1C(C)N1CCN(C)CC1` (stereo not drawn): the melting point lay within 130 to 131 °C. Then `O=S(=O)(Cl)c1cc(S(=O)(=O)Cl)c2c(Cl)ccc(S(=O)(=O)Cl)c2c1`, with 165 to 166 °C.
